Laboratory results from US20080014192A1, “Methods For The Diagnosis And Treatment of Fungal Infections Caused By Microorganisms Producing Glucosylceramide” (priority 2006, published 2008).

What was measured:
alveolar macrophages = experiment: Alveolar macrophage depletion, count in bronchoalveolar lavage after intranasal liposomes; format: in vivo, mouse; settings: P<0.05
Procedure: Alveolar macrophage depletion. Liposomes containing clodronate (dichloromethylenediphosphonic acid disodium salt) and empty liposomes used as control, were prepared as described previously (Van Rooijen, 1994). Briefly, 8 mg cholesterol (Avanti Polar Lipids) and 86 mg L-alpha phosphatidylcholine (Avanti Polar Lipids) were dissolved in chloroform, which was then slowly evaporated. The thin, filmy layer was resuspended in 10 ml of PBS or 0.6M clodronate. The mixture was exposed to N2 gas and incubated 2 hours at room temperature with gentle shaking. The mixture was then sonicated and incubated another 2 hours to allow liposome swelling. The solution was centrifuged at 10,000 g for 15 minutes and the liposomes containing clodronate were collected and washed twice with sterile PBS. The liposomes were kept at 4° C. under N2 until use for a maximum of 2 weeks.
(§1) Alveolar macrophage depletion was evaluated by intranasally introducing 60 μl of PBS, empty liposome or liposomes containing clodronate into the mouse and performing bronchoalveolar lavage at 48 hours or 6 days. […] The collected fluid was spun down and alveolar macrophages were counted. […]
Pharmacological depletion of alveolar macrophage. […] After 48 hours or 7 days from the injection, mice were sacrificed, the bronco alveolar lavage (BAL) fluid was collected and viability of alveolar macrophages assessed microscopically.

[1] = test system: Cn WT (C. neoformans var. grubii serotype A H99); experiment: Survival of Tgε26 mice infected intranasally with Cn wild-type; format: in vivo, Cryptococcus neoformans; settings: Cn WT intranasal, weekly intranasal liposome treatment, no significant change vs controls
Procedure: (§2) Animal studies. Four to six-week-old Tgε26 mice (Wang et al., 1994; Wang et al., 1997), available in our Animal Core Facility, Medical University of South Carolina, Charleston, S.C., were used for this study. Mice were anesthetized with an intraperitoneal injection of 60 μl xylaxine/ketamine mixture containing 5 mg xylazine and 95 mg ketamine per kilogram of body weight. Wild-type and mutant strains of Cn were grown in YPD media for 24 hrs at 30° C. The yeast cells were harvested and washed three times by centrifugation at 3000 rpm for 10 minutes and resuspended in sterile PBS (pH=7.4) at a concentration of 2.5×10^7 cells/ml. Mice were infected intranasally with 20 μl containing 5×10^5 wild-type, Δgcs1 or Δgcs1+GCS1 cells. Mice were fed ad libitum and monitored by twice-daily inspections. Mice that appeared moribund, in pain or with clinical signs of meningoencephalitis were sacrificed using CO2 inhalation followed by cervical dislocation. […] Survival data from the mice experiment were analyzed by Kluskal-Wallis test. […]
as §1

Cn Δgcs1 mutant [2] = experiment: Survival of Tgε26 mice infected intranasally with Cn Δgcs1; format: in vivo, Cryptococcus neoformans
Procedure: as §2, §1

[3] = test system: Cn WT (C. neoformans var. grubii serotype A H99); experiment: Tissue fungal burden (CFU) in Tgε26 mice infected with Cn wild-type; format: in vivo, Cryptococcus neoformans
Procedure: (§3) Alveolar macrophage depletion was evaluated by intranasally introducing 60 μl of PBS, empty liposome or liposomes containing clodronate into the mouse and performing bronchoalveolar lavage at 48 hours or 6 days. Bronchoalveolar lavage was done by inserting a stub adapter in the trachea of the mouse and rinsing the alveolar spaces 10 times using 0.5 ml PBS (pH=7.4) for each wash. The collected fluid was spun down and alveolar macrophages were counted. Lavage samples were taken from two mice per time point per group. Experimental groups were divided into five mice each receiving PBS (control group), empty liposome (control group) or liposome encapsulated clodronate administered mice. Two days before infection with yeast, the mice were anesthesized and given 60 μl of PBS, empty liposomes or clodronate-encapsulated liposomes. After 48 hrs, mice were infected with the yeast cells as described above. Mice continued to receive PBS, liposome or clodronate treatment weekly.
(§4) Tissue fungal burden. […] Organs were homogenized in sterile PBS, using the Stomacher 80 (Lab system, Fisher Scientific, Pittsburgh, Pa., USA) for 2 minutes. Serial dilutions were then plated onto YPD plates and colony-forming units were counted and recorded. Statistical analysis was performed using Student's t test, and a p value of less than 0.05 was considered to be significant.
Tissue burden studies. […]

Cn Δgcs1 mutant [4] = experiment: Tissue fungal burden (CFU) in Tgε26 mice infected with Cn Δgcs1; format: in vivo, Cryptococcus neoformans
Procedure: as §3, §4
Tissue burden studies. To address the effect of macrophage depletion on the dissemination of Δgcs1 cells, we performed tissue burden studies of lung, brain, spleen, and kidney upon infection of Cn WT or Δgcs1 strain.

Cn Δgcs1 mutant [5] = experiment: Lung histopathology of Tgε26 mice infected with Cn Δgcs1; format: in vivo, Cryptococcus neoformans; settings: day 16 and day 36 of infection; vs empty liposome
Procedure: Histological analyses. Organs were harvested and fixed for 48 hours in 37% formaldehyde, paraffin-embedded, sectioned and stained with movat, mucicarmine, or hematoxylin and eosin.
Histopathology. To gain further insights in the host inflammatory response against Cn Δgcs1 cells in mice in which macrophages have been deleted, we performed a histology analysis on lungs of Tgε26 mice infected with Δgcs1 strain and receiving empty liposome or liposome containing clodronate.

fungal cells = settings: Ma et al., 2006 and Alvarez et al.; cited from earlier work

| SMILES | decrease in number of alveolar macrophages (AMs) (alveolar macrophages; 48 hours after single intranasal 60 μl dose of liposome suspension, vs PBS- or empty liposome-treated mice) [%] | reduction of AMs (alveolar macrophages; 7 days after single intranasal 60 μl dose of liposome suspension, vs control-treated mice) [%] | average survival of Cn-infected mice [1] [days] | additional days of survival of infection by the Δgcs1 strain (Cn Δgcs1 mutant [2]; Tgε26 mice depleted of AMs) [days] | average survival of Δgcs1-infected mice (Cn Δgcs1 mutant [2]; {}) [days] | tissue burden culture in the brain, Cn WT ([3]; Tgε26 mice, FIG. 15B) | tissue colonization of Cn WT cells in all organs analyzed ([3]; lung, brain, spleen, kidney, vs PBS or empty liposome groups) | number of fungal cells in all organs analyzed, Δgcs1 (Cn Δgcs1 mutant [4]; lung, brain, kidney, spleen, vs control treated groups, P<0.05) | reduction of lung Δgcs1 fungal load (Cn Δgcs1 mutant [4]; macrophage-depleted Tgε26 lungs, P<0.001) [fold] | delay in fungal growth in all other organs (Cn Δgcs1 mutant [4]; {}) [days] | lung histopathology, Δgcs1 cells (Cn Δgcs1 mutant [5]) | extrusion of fungal cells from the intracellular to the extracellular compartment (fungal cells) |
| --- | --- | --- | --- | --- | --- | --- | --- | --- | --- | --- | --- | --- |
| O=P([O-])([O-])C(Cl)(Cl)P(=O)(O)O.[Na+].[Na+] [clodronate, dichloromethylenediphosphonic acid disodium salt] | 58 | 52 | 12.8 ± 5.2 | 18 to 20 | 76.6 ± 5.3 | reduction of tissue burden culture in the brain (FIG. 15B) but this difference was not statistically significant | No statistically significant differences | significantly lower number of fungal cells | > 3000 | 14 | few Δgcs1 cells in the lung parenchyma | – |
| CCN(CC)CCCC(C)Nc1ccnc2cc(Cl)ccc12 (stereo not drawn) [chloroquine] | – | – | – | – | – | – | – | – | – | – | – | promote extrusion of fungal cells |
